Patent US8129396B2, “2-[1H-benzimidazol-2(3H)-ylidene]-2-(pyrimidin-2-yl)acetamides and 2-[benzothiazol-2(3H)-ylidene]-2-(pyrimidin-2-yl)acetamides as kinase inhibitors” (Telik, Inc., priority 2008, dated 2012)
pIC50: −log10 of the molar value.

Key:
[1] = system: HUVEC-2 (human umbilical vein endothelial cells); test: HUVEC VEGF-dependent proliferation assay (BrdU); format: cell-based; details: VEGF (25 ng/mL)-dependent proliferation, read-out: HUVEC IC50
Description: (§1) The cell lines HL60 (human promyelocytic leukemia) and HCT116 (human colon carcinoma) were obtained from the American Type Culture Collection, Manassas, Va., U.S.A., and HUVEC-2 (human umbilical vein endothelial cells) from BD Biosciences, Bedford, Mass., U.S.A. Aurora A kinase was obtained from Upstate Biotech, Billerica, Mass., U.S.A.; Aurora B kinase from BPS Bioscience, San Diego, Calif., U.S.A.; and VEGFR2 kinase from Cell Signaling Technology, Danvers, Mass., U.S.A. The IMAP FP Screening Express kit was obtained from Molecular Devices, Sunnyvale, Calif., U.S.A.; the CellTiter-Glo assay kit from Promega Corporation, Madison, Wis., U.S.A.; and the Cellular DNA Cytometric Analysis Reagent Kit and BrdU labeling and detection kit from Roche Diagnostics Corporation, Indianapolis, Ind., U.S.A. All products were used in accordance with manufacturer's directions. Kinase inhibition assays and the histone phosphorylation (p-H3) assay were conducted in duplicate, and the cytotoxicity and HUVEC proliferation assays were conducted in triplicate, in each case with solvent control.
HUVEC-2 cells were seeded at 10^4 cells/well in a 96-well plate coated with 0.1% gelatin in complete medium. […] The compounds were serially diluted in DMSO, and added to the cells at 0.5% DMSO final concentration. After 2 hr, VEGF (25 ng/mL) was added; and after a further day, 5-bromo-2-deoxyuridine (BrdU, 10 μM) was added to label proliferating cells, and the cells incubated for another day. The plates were then processed using the Roche BrdU labeling and detection kit, and the VEGF-dependent antiproliferative activity of the compounds determined.

VEGFR2 kinase = target: T1, VEGFR2 kinase (Homo sapiens, UniProt P35968); test: VEGFR2 kinase assay; format: biochemical; details: 6 μM ATP, 1 mM MnCl2; rounded to 1 significant figure
T1 construct: purchased Cell Signaling Technology
T1 sequence (P35968 20-1356): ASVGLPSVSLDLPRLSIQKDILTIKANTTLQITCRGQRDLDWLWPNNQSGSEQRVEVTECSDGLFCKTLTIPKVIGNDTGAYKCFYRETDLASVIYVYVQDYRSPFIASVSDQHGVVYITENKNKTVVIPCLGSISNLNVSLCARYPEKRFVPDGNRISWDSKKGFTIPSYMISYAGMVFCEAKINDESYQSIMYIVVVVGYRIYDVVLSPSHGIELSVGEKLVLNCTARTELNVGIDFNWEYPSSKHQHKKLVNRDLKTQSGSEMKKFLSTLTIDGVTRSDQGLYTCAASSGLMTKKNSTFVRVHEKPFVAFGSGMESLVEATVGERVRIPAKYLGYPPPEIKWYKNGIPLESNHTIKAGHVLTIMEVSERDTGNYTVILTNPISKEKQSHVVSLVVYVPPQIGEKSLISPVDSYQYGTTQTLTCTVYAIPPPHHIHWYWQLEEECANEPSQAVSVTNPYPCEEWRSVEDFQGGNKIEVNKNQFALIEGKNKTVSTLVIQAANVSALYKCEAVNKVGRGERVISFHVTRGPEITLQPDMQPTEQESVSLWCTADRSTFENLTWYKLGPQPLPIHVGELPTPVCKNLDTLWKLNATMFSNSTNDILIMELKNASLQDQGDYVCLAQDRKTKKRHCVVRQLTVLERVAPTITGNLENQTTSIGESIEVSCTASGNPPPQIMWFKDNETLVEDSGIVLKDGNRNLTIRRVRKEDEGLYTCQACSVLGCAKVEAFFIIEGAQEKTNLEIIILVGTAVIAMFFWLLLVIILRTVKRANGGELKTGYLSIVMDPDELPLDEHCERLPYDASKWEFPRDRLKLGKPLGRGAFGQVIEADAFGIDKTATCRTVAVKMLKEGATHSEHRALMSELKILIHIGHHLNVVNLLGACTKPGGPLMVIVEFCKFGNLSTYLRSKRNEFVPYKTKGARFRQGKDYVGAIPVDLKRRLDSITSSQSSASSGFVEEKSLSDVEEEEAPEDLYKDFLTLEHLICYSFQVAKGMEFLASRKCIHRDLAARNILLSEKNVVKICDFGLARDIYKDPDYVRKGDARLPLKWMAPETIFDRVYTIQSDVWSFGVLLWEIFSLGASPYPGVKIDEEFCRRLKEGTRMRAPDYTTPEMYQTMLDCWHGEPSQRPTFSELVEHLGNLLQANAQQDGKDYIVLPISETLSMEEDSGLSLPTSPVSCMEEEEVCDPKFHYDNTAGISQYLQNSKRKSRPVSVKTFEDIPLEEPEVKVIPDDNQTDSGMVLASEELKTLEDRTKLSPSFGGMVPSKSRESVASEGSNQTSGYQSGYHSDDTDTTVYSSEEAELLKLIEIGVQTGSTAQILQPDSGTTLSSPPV
Description: as §1
This assay was performed as for the Aurora A kinase assay, using VEGFR2 kinase, CSKtide as the substrate with 6 μM ATP and 1 mM MnCl2, a kinase reaction time of 1 hr, and dilution of the binding reagent 1:1200 in binding buffer A/binding buffer B (1:1).

Aurora A kinase = target: T2, Aurora A kinase (Homo sapiens, UniProt O14965); test: Aurora A kinase assay (IMAP fluorescence polarization); format: biochemical; details: 10 μM ATP; rounded to 1 significant figure; read-out: Aur-A IC50
T2 construct: purchased Upstate Biotech
T2 sequence (O14965 1-403): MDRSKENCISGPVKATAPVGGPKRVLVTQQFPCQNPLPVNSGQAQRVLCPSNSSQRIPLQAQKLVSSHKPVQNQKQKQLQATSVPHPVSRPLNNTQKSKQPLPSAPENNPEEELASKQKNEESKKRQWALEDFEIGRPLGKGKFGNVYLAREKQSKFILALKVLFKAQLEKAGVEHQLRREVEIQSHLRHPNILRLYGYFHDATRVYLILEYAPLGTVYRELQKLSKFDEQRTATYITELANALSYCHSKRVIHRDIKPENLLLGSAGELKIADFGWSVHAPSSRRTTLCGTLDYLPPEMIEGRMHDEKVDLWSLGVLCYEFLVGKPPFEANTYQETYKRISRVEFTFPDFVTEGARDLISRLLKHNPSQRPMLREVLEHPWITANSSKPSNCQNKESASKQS
Description: as §1
Aurora A kinase assay: the test compounds were diluted in dimethylsulfoxide (DMSO, eight concentrations with serial 3-fold dilutions) and incubated (final DMSO concentration 2.5%) with Aurora A kinase at room temperature for 5 min in kinase reaction buffer with 1 mM dithiothreitol (IMAP FP Screening Express). The kinase reaction was initiated by adding 100 nM fluorescein labeled PKAtide and 10 μM adenosine triphosphate (ATP), and allowed to continue for 45 min at room temperature, after which it was stopped by adding binding reagent (1:400 dilution in binding buffer A). After 30 min of room temperature incubation with shaking, the fluorescence polarization was measured on a LJL plate reader. Aurora B kinase assay: performed as for the Aurora A kinase assay, but using Aurora B kinase instead of Aurora A kinase.

[2] = system: HCT116 (human colon carcinoma) cells; test: HCT116 cytotoxicity assay (CellTiter-Glo); format: cell-based; details: HCT-116, 72 h, cytotoxicity, three days culture, read-out: HCT116 IC50
Description: as §1
Log-phase cells were trypsinized, collected by centrifugation, and resuspended in a small volume of fresh medium, and the density of viable cells was determined following Trypan Blue staining. Cells were diluted in fresh media (1×10^4 cells/mL for HL60 and 4×10^4 cells/mL for HCT116 cells), the test compounds (concentrations between 0.1 μM and 200 μM, dissolved in DMSO, 50 μL) added immediately after dilution to achieve a final DMSO concentration of 0.5%, then the suspensions added at 150 μL/well to 96-well plates, and incubated overnight to allow attachment in the case of adherent cells. The cells were cultured for three days (about three doubling times). The cells were then collected by centrifugation, and 100 μL of the culture supernatant was replaced by the CellTiter-Glo reagent. After incubation for 15 minutes at room temperature, the plate was read with a luminometer.

p-H3 in HCT116 cells = test: Histone phosphorylation (p-H3) assay; format: cell-based; details: Homo sapiens, HCT-116; HCT116 cells, 4 hr incubation; read-out: p-H3 IC50
Description: as §1
Log phase HCT116 cells were seeded at 2.5×10^4 cells/well in a 96-well plate and allowed to attach overnight. The test compounds were diluted in DMSO (8 concentrations with serial 3-fold dilutions) and added to the cells (0.5% DMSO final concentration), and the cells incubated for 4 hr. The cells were then washed three times with cold phosphate-buffered saline (PBS), and lysis buffer was added. After 30 min shaking at 4° C. and centrifugation, the supernatants were transferred to a nitrocellulose membrane by a “dot-blot” apparatus. After washing the wells, the membrane was processed for Western blot. Detection of p-H3 and β-actin was performed on the same membrane with primary rabbit anti-p-H3 and mouse anti-β-actin antibodies followed by secondary goat anti-rabbit IRDye800 and goat anti-mouse AlexaFluor 680 antibodies. The membranes were scanned on an Odyssey scanner.

Aurora B kinase = target: T3, Aurora B kinase (Homo sapiens, UniProt Q96GD4); test: Aurora B kinase assay (IMAP fluorescence polarization); format: biochemical; details: 10 μM ATP; rounded to 1 significant figure; read-out: Aur-B IC50
T3 construct: purchased BPS Bioscience
T3 sequence (Q96GD4 whole entry): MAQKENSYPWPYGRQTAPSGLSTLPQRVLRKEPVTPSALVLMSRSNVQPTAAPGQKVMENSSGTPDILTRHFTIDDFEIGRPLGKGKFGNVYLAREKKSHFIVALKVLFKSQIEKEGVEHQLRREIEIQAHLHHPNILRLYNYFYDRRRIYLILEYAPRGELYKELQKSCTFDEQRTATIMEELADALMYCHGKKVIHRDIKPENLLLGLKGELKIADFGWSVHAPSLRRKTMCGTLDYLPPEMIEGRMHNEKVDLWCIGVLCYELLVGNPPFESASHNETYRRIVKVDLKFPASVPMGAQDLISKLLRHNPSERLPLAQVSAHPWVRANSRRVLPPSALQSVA
Description: as §1
The kinase reaction was initiated by adding 100 nM fluorescein labeled PKAtide and 10 μM adenosine triphosphate (ATP), and allowed to continue for 45 min at room temperature, after which it was stopped by adding binding reagent (1:400 dilution in binding buffer A). After 30 min of room temperature incubation with shaking, the fluorescence polarization was measured on a LJL plate reader. Aurora B kinase assay: performed as for the Aurora A kinase assay, but using Aurora B kinase instead of Aurora A kinase.

Row | SMILES | pIC50 [1] | pIC50 (VEGFR2 kinase) | pIC50 (Aurora A kinase) | pIC50 [2] | pIC50 (p-H3 in HCT116 cells) | pIC50 (Aurora B kinase)
1 | CN(C)CCOc1ccc2c(c1)S/C(=C(/C(N)=O)c1nccc(C(F)(F)F)n1)N2 [Compound 116A] | 7.00 | 8.05 | 7.40 | 6.40 | 7.10 | 8.10
2 | CN1CCN(S(=O)(=O)c2ccc3c(c2)S/C(=C(/C(N)=O)c2nccc(C(F)(F)F)n2)N3)CC1 [Compound 126A] | 7.52 | 7.15 | 7.70 | 5.70 | 5.70 | 7.70
3 | CN(C)CCCNC(=O)c1ccc2c(c1)N/C(=C(/C(N)=O)c1nccc(C(F)(F)F)n1)N2 [Compound 62A] | 7.22 | 8.22 | 7.15 | 7.22 | 6.40 | 8.00
4 | CN1CCN(Cc2ccc3c(c2)S/C(=C(/C(N)=O)c2nccc(C(F)(F)F)n2)N3)CC1 [Compound 93A] | 7.52 | 8.00 | 7.70 | 6.52 | 7.00 | 7.70
5 | CCN1CCN(CCCNC(=O)c2ccc3c(c2)S/C(=C(/C(N)=O)c2nccc(C(F)(F)F)n2)N3)CC1 [Compound 56A] | 7.40 | 7.70 | 7.70 | 7.40 | 6.15 | 7.70
6 | NC(=O)/C(=C1\Nc2ccc(N3CCC(N4CCCCC4)CC3)cc2S1)c1nccc(C(F)(F)F)n1 [Compound 121A] | 6.05 | 7.70 | 7.52 | 6.00 | 7.05 | 8.10
7 | NC(=O)/C(=C1\Nc2ccc(N3CCC(N4CCOCC4)CC3)cc2S1)c1nccc(C(F)(F)F)n1 [Compound 122A] | 5.15 | 7.70 | 7.70 | 5.40 | 6.40 | 8.05
8 | NC(=O)/C(=C1\Nc2ccc(C(=O)Nc3ccncc3)cc2N1)c1nccc(C(F)(F)F)n1 [Compound 44A] | 7.10 | 8.00 | 8.00 | 6.70 | 6.70 | 8.00
9 | NC(=O)/C(=C1\Nc2ccc(C(=O)N3CC[C@@H](N)C3)cc2S1)c1nccc(C(F)(F)F)n1 [Compound 69A] | 7.70 | 8.70 | 7.70 | 7.05 | 7.00 | 7.52
10 | CN1CCN(CCOc2ccc3c(c2)S/C(=C(/C(N)=O)c2nccc(C(F)(F)F)n2)N3)CC1 [Compound 114A] | 7.40 | 7.40 | 7.40 | 6.22 | 7.30 | 7.70
11 | NC(=O)/C(=C1\Nc2ccc(C(=O)N3CCC(N)CC3)cc2S1)c1nccc(C(F)(F)F)n1 [Compound 67A] | 7.70 | 8.40 | 8.00 | 6.70 | 7.40 | 7.40
12 | COc1ccnc(/C(C(N)=O)=C2/Nc3ccc(CN4CCOCC4)cc3S2)n1 [Compound 92A] | 7.22 | 6.40 | 7.15 | 5.30 | 6.30 | 7.52
13 | CN1CCN(c2ccc3c(c2)S/C(=C(/C(N)=O)c2nccc(C(F)(F)F)n2)N3)CC1 [Compound 120A] | 5.70 | 8.70 | 7.52 | 5.70 | 6.30 | 8.05
14 | CN1CCN(CCCOc2ccc3c(c2)S/C(=C(/C(N)=O)c2nccc(C(F)(F)F)n2)N3)CC1 [Compound 115A] | 7.00 | 7.70 | 7.40 | 7.00 | 6.70 | 7.52
15 | CN1CCN(C(=O)c2ccc3c(c2)N/C(=C(/C(N)=O)c2nccc(C(F)(F)F)n2)N3)CC1 [Compound 58A] | 7.22 | 8.05 | 8.05 | 6.40 | 6.30 | 8.30
16 | CN1CCN(CCNC(=O)c2ccc3c(c2)S/C(=C(/C(N)=O)c2nccc(C(F)(F)F)n2)N3)CC1 [Compound 57A] | 7.70 | 8.00 | 7.70 | 7.00 | 7.00 | 7.70
17 | NC(=O)C(=C1Nc2ccccc2N1)c1ncc(C(=O)NCCCN2CCOCC2)c(C(F)(F)F)n1 [Compound 132A] | 6.22 | 7.00 | 7.22 | 6.00 | 5.70 | 7.70
18 | NC(=O)/C(=C1\Nc2cc(F)c(C(=O)NCCCN3CCOCC3)cc2S1)c1nccc(C(F)(F)F)n1 [Compound 50A] | 7.05 | 7.70 | 7.70 | 6.52 | 6.40 | 8.00
19 | CN1CCCCC1C(=O)Nc1ccc2c(c1)N/C(=C(/C(N)=O)c1nccc(C(F)(F)F)n1)N2 (stereo not drawn) [Compound 82A] | 7.52 | 8.00 | 8.10 | 7.10 | 6.40 | 8.15
20 | NC(=O)/C(=C1\Nc2ccc(OCCCN3CCOCC3)cc2S1)c1nccc(C(F)(F)F)n1 [Compound 113A] | 6.70 | 7.40 | 7.52 | 6.22 | 6.40 | 7.70
21 | NC(=O)/C(=C1\Nc2ccc(S(=O)(=O)NCCN3CCOCC3)cc2S1)c1nccc(C(F)(F)F)n1 [Compound 128A] | 7.22 | 7.22 | 8.00 | 6.05 | 6.22 | 7.70
